Laboratory results: the supplement of paper PMC10307832

Legend:
Assay in all cases: relative viability (nuclei count vs DMSO), 5 days (fraction); higher = more cells survive
[1] = compound: COc1cccc2c1C(=O)c1c(O)c3c(c(O)c1C2=O)C[C@@](O)(C(=O)CO)C[C@@H]3O[C@H]1C[C@H](N)[C@H](O)[C@H](C)O1 [Doxorubicin] + Cc1nc(Nc2ncc(C(=O)Nc3c(C)cccc3Cl)s2)cc(N2CCN(CCO)CC2)n1 [Dasatinib] (partner 0.075 µM)
Summary of the method: (§1)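 Lung cancer cell lines were seeded in 1536-well plates and dosed by pin tool the next day, with either a single drug or a fixed anchor-drug dose combined with five library-drug doses (not always all listed) spaced in √10 steps. Five days later, one step fixed the cells and stained their nuclei (final 0.05% Triton X-100, 1% formaldehyde, 1 ug/ml Hoechst), and nuclei were counted on 4× images. Relative viability is the nuclei count in treated wells divided by the count in vehicle wells, and each value is the median of duplicate plates.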

[2] = compound: COC1=C(C=C(C=C1)C2=CC3=NC=CN3C(=N2)NC4=C(C=CC=N4)C(=O)N)OC [BAY61-3606] + Nc1ncn([C@H]2C[C@H](O)[C@@H](CO)O2)c(=O)n1 [Decitabine] (partner 2 µM)
Summary of the method: as §1

[3] = compound: COc1cccc2c1C(=O)c1c(O)c3c(c(O)c1C2=O)C[C@@](O)(C(=O)CO)C[C@@H]3O[C@H]1C[C@H](N)[C@H](O)[C@H](C)O1 [Doxorubicin] + CCNC(=O)c1noc(-c2cc(C(C)C)c(O)cc2O)c1-c1ccc(CN2CCOCC2)cc1 [Luminespib] (partner 0.01 µM)
Summary of the method: as §1

[4] = compound: COC1=C(C=C(C=C1)C2=CC3=NC=CN3C(=N2)NC4=C(C=CC=N4)C(=O)N)OC [BAY61-3606] + CC(C)C[C@H](NC(=O)[C@H](Cc1ccccc1)NC(=O)c1cnccn1)B(O)O [Bortezomib] (partner 0.002 µM)
Summary of the method: as §1

Cell Line | relative viability ([1]; first compound 0.003162 µM) | relative viability ([1]; first compound 0.01 µM) | relative viability ([1]; first compound 0.03162 µM) | relative viability ([1]; first compound 0.1 µM) | relative viability ([2]; first compound 0.02 µM) | relative viability ([2]; first compound 0.06325 µM) | relative viability ([2]; first compound 0.2 µM) | relative viability ([2]; first compound 0.6325 µM) | relative viability ([2]; first compound 2 µM) | relative viability ([3]; first compound 0.003162 µM) | relative viability ([3]; first compound 0.01 µM) | relative viability ([3]; first compound 0.03162 µM) | relative viability ([3]; first compound 0.1 µM) | relative viability ([4]; first compound 0.02 µM) | relative viability ([4]; first compound 0.06325 µM) | relative viability ([4]; first compound 0.2 µM) | relative viability ([4]; first compound 0.6325 µM) | relative viability ([4]; first compound 2 µM) | relative viability ([1]; first compound 0.001 µM) | relative viability ([3]; first compound 0.001 µM)
HCC-15 | 0.654 | 0.493 | 0.191 | 0.0861 | 0.575 | 0.569 | 0.583 | 0.65 | 0.6 | 0.304 | 0.312 | 0.231 | 0.222 | 1.04 | 1.06 | 0.967 | 0.937 | 1.01 |  | 
HCC-827 | 0.335 | 0.29 | 0.304 | 0.365 | 0.327 | 0.321 | 0.352 | 0.317 | 0.308 | 0.379 | 0.602 | 0.573 | 0.566 | 1.03 | 1.07 | 1.01 | 1.02 | 1.1 | 0.3 | 0.555
HOP-62 | 0.737 | 0.601 | 0.628 | 0.552 |  | 0.2 | 0.228 | 0.266 | 0.22 | 0.942 | 0.896 | 0.958 | 0.931 | 0.869 |  | 1.16 | 0.443 | 0.723 | 0.68 | 0.906
LC-2-ad | 0.602 | 0.489 | 0.209 | 0.161 | 0.849 | 0.772 | 0.775 | 0.778 | 0.92 | 0.696 | 0.642 | 0.421 | 0.295 | 1.02 | 1.1 | 0.979 | 1.08 | 0.907 | 0.691 | 0.889
LCLC-97TM1 | 0.776 | 0.831 | 0.734 | 0.884 | 0.223 | 0.222 | 0.247 | 0.223 | 0.228 | 0.818 | 0.677 | 0.772 | 0.834 | 0.639 | 0.73 | 0.527 | 0.533 | 0.702 | 0.836 | 0.718
LCLC-103H | 0.6 | 0.446 | 0.381 | 0.552 | 0.773 | 0.707 | 0.75 | 0.748 | 0.773 | 1.06 | 0.949 | 0.931 | 0.864 | 1.28 | 1.01 | 1.03 | 1.07 | 1.05 | 0.507 | 0.941
LOU-NH91 | 0.646 | 0.529 | 0.531 | 0.474 | 0.809 | 0.805 | 0.847 | 0.838 | 0.746 | 0.347 | 0.314 | 0.323 | 0.328 | 0.52 | 0.485 | 0.462 | 0.467 | 0.454 | 0.488 | 0.34
LU99A | 0.526 | 0.527 | 0.422 | 0.361 | 0.926 | 1.01 | 0.966 | 0.804 | 0.559 | 0.228 | 0.268 | 0.235 | 0.258 | 1.14 | 1.21 | 1.18 | 1.12 | 0.709 | 0.359 | 0.226
